Active and inactive are the calls of the source. For most assays here, no stated cut-off is given here; in the data, actives have a measured Kd and inactives only a lower limit.
Tests used:
[1] = molecular target: T1, Serine/threonine-protein kinase 4 (Homo sapiens, UniProt Q13043)
T1 sequence (Q13043 whole entry): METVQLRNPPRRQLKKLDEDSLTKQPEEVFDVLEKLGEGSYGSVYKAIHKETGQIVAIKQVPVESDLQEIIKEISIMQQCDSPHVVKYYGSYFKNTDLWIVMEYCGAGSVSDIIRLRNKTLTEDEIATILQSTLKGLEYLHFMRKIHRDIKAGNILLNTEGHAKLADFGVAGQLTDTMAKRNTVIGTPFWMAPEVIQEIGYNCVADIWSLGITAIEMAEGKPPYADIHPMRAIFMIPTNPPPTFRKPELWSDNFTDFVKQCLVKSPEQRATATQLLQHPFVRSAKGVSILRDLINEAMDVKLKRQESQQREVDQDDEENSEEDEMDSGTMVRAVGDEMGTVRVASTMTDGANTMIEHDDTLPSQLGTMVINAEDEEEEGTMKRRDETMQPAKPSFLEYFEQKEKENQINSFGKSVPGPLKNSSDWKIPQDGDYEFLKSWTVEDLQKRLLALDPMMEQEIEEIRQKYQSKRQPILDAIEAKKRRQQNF

[2] = molecular target: Mitotic checkpoint serine/threonine-protein kinase BUB1 (Homo sapiens, UniProt O43683)
[3] = molecular target: T2, Bone morphogenetic protein receptor type-2 (Homo sapiens, UniProt Q13873)
T2 sequence (Q13873 whole entry): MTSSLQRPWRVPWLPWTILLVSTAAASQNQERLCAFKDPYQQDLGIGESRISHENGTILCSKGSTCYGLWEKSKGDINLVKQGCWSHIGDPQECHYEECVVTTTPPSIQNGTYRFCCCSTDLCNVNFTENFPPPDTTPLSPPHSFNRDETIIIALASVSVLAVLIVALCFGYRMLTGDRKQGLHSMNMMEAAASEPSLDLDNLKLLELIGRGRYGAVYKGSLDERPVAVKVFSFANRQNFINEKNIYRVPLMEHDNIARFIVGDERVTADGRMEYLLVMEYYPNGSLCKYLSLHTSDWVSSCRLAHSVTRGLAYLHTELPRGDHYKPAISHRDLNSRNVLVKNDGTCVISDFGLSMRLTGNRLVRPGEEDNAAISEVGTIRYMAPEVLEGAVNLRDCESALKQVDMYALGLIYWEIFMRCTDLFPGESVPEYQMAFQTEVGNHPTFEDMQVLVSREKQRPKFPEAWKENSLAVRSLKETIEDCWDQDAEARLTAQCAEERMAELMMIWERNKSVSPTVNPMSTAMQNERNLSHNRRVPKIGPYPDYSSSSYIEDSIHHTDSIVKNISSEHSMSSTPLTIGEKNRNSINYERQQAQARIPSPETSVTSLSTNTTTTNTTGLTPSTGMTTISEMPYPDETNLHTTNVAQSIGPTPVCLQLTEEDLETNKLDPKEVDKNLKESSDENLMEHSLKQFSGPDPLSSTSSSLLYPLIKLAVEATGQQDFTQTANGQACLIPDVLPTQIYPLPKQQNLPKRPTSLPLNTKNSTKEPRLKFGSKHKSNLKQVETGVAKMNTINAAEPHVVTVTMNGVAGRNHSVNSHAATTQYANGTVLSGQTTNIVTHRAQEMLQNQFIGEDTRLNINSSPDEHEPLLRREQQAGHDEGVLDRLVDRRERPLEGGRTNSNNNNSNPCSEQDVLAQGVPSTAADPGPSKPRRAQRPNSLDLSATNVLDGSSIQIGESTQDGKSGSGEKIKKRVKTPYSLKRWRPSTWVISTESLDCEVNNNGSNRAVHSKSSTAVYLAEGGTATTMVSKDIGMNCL

[4] = molecular target: T3, AarF domain-containing protein kinase 1 (Homo sapiens, UniProt Q86TW2)
T3 sequence (Q86TW2 whole entry): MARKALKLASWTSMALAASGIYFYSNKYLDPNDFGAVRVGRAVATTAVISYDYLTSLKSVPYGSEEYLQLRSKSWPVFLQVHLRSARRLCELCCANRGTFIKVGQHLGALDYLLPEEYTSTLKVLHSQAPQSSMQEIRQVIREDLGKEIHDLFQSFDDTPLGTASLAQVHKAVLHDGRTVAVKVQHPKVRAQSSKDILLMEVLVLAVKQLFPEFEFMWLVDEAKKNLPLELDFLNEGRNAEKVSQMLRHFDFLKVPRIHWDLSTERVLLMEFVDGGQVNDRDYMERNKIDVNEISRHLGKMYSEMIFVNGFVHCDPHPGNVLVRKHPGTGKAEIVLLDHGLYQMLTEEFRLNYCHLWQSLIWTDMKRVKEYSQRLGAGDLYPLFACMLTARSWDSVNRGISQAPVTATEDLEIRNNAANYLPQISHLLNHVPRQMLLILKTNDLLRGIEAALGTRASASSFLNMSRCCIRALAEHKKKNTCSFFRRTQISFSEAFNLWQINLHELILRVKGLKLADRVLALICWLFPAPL

[5] = molecular target: Receptor-interacting serine/threonine-protein kinase 3 (Homo sapiens, UniProt Q9Y572)
[6] = molecular target: Tyrosine-protein kinase FRK (Homo sapiens, UniProt P42685)
Focal adhesion kinase 1 = Focal adhesion kinase 1 (Homo sapiens, UniProt Q05397)
[7] = molecular target: Membrane-associated progesterone receptor component 1 (Homo sapiens, UniProt O00264)
[8] = molecular target: T4, Interleukin-1 receptor-associated kinase 4 (Homo sapiens, UniProt Q9NWZ3)
T4 sequence (Q9NWZ3 whole entry): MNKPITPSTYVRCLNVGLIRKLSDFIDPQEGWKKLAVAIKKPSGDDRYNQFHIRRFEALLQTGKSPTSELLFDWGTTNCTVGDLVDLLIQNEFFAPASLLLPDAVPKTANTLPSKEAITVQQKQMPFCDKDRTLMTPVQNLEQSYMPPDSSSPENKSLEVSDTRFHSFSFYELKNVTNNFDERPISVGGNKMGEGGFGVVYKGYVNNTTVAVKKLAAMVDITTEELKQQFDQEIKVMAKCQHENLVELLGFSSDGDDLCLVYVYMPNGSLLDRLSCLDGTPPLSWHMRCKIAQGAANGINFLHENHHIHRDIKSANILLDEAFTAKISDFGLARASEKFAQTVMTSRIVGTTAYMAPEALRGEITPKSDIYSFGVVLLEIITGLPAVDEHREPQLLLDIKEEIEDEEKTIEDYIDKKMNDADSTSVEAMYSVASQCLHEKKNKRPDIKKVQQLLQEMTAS

Sequence of Receptor-interacting serine/threonine-protein kinase 3 (Q9Y572 whole entry): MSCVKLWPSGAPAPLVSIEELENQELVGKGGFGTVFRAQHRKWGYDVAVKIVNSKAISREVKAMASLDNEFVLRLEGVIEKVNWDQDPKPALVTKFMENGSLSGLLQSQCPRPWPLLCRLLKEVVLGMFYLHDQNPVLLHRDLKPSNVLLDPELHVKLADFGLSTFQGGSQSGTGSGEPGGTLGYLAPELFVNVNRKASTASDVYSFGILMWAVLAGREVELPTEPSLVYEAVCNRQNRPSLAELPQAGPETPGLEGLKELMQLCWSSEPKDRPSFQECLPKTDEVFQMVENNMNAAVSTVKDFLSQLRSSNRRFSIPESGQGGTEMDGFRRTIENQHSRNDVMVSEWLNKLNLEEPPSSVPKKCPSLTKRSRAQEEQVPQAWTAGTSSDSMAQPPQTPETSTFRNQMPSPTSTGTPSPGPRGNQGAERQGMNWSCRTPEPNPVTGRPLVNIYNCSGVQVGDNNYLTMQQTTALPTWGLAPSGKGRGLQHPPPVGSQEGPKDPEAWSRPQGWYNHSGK
Sequence of Membrane-associated progesterone receptor component 1 (O00264 whole entry): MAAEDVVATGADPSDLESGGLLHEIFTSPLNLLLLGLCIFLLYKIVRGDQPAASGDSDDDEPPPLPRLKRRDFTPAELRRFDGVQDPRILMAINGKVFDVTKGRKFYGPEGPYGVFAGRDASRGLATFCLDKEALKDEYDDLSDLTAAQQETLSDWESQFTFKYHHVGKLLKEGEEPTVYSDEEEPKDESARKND
Sequence of Tyrosine-protein kinase FRK (P42685 whole entry): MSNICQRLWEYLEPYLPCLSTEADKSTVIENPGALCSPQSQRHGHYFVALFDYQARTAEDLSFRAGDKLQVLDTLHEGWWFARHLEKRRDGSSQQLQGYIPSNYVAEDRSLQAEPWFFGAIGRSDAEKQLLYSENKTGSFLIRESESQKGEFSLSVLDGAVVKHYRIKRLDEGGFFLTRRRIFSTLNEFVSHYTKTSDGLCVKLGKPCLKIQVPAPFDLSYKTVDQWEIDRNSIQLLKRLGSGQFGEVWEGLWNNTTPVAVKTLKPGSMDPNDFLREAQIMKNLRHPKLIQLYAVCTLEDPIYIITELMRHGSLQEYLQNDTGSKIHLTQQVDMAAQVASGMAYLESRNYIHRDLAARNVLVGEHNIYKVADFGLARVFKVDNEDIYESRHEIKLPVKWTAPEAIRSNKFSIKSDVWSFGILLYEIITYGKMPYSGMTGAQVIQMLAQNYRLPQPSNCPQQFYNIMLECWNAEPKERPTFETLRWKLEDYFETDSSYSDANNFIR
Sequence of Mitotic checkpoint serine/threonine-protein kinase BUB1 (O43683 whole entry): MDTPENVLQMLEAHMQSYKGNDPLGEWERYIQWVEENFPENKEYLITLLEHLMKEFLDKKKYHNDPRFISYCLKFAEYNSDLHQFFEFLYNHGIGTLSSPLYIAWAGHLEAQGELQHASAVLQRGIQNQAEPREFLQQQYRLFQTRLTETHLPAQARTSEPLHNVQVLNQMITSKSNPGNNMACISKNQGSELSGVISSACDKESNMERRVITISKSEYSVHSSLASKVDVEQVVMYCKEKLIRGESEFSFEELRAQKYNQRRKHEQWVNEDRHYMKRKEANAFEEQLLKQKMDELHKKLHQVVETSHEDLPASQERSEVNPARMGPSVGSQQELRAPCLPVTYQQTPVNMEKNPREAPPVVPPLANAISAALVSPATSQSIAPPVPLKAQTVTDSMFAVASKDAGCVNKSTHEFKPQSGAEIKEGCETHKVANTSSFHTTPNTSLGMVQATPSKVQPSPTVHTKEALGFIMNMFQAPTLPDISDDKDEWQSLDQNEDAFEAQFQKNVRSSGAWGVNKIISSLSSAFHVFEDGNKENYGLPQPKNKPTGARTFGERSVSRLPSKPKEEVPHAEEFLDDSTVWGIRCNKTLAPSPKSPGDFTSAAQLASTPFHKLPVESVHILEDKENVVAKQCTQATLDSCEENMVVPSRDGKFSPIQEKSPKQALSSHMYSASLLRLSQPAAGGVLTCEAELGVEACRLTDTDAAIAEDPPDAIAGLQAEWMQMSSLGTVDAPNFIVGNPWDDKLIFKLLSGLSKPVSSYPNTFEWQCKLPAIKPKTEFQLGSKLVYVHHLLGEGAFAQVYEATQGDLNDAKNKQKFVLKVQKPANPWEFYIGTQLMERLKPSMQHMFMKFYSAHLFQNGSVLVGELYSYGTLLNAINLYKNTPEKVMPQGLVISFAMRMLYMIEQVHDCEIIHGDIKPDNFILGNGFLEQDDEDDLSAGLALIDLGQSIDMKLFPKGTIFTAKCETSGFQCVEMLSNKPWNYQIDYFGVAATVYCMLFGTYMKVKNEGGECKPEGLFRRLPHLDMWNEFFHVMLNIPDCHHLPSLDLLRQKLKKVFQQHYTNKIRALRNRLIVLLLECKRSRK
Sequence of Focal adhesion kinase 1 (Q05397 whole entry): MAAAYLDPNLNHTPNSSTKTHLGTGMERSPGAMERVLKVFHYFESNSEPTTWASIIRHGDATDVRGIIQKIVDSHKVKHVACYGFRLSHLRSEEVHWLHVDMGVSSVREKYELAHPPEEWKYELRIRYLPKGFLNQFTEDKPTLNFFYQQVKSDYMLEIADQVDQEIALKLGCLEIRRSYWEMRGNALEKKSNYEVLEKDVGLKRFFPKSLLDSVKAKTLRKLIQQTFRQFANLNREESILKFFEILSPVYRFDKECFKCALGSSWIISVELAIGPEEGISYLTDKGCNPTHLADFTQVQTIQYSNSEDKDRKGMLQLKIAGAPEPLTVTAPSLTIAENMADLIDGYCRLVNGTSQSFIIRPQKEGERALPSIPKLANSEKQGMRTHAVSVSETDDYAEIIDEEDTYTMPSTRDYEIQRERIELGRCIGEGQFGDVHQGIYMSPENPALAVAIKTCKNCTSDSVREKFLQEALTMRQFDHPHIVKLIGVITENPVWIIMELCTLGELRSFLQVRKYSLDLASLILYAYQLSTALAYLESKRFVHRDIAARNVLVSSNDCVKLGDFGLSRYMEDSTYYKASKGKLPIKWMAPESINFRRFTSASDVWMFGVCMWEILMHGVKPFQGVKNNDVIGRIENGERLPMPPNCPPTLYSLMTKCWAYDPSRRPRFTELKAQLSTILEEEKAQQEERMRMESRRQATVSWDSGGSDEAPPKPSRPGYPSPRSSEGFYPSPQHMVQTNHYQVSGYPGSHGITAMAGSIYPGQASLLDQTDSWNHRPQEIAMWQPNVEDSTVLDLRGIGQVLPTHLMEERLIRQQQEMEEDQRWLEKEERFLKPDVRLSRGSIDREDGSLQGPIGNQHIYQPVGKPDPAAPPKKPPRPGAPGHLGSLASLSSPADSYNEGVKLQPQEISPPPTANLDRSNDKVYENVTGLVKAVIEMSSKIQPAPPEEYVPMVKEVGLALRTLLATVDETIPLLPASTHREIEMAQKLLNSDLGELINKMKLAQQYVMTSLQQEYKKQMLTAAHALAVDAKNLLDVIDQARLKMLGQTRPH

Row | Kd [1] | Kd [2] | Kd [3] | Kd [4] | Kd [5] | Kd [6] | Kd (Focal adhesion kinase 1) | Kd [7] | Kd [8] | Compound
1 | > 30 µM (inactive) | > 30 µM (inactive) | > 30 µM (inactive) | > 30 µM (inactive) | > 30 µM (inactive) | – | – | > 30 µM (inactive) | – | COc1cc(Nc2ncc3c(n2)-c2ccc(Cl)cc2C(c2c(F)cccc2OC)=NC3)ccc1C(=O)O [ALISERTIB]
2 | – | > 30 µM (inactive) | – | > 30 µM (inactive) | > 30 µM (inactive) | – | – | – | – | CNC(=O)c1ccccc1Sc1ccc2c(/C=C/c3ccccn3)n[nH]c2c1 [AXITINIB]
3 | > 30 µM (inactive) | > 30 µM (inactive) | > 30 µM (inactive) | > 30 µM (inactive) | > 30 µM (inactive) | > 30 µM (inactive) | – | – | > 30 µM (inactive) | Cc1cc(Nc2ncc(Cl)c(Nc3ccccc3S(=O)(=O)C(C)C)n2)c(OC(C)C)cc1C1CCNCC1 [CERITINIB]
4 | > 30 µM (inactive) | > 30 µM (inactive) | > 30 µM (inactive) | > 30 µM (inactive) | > 30 µM (inactive) | > 30 µM (inactive) | > 30 µM (inactive) | – | > 30 µM (inactive) | COc1c(OCCCN2CCOCC2)ccc2c1N=C(NC(=O)c1cnc(N)nc1)N1CCN=C21 [COPANLISIB]
5 | – | > 30 µM (inactive) | – | > 30 µM (inactive) | > 30 µM (inactive) | – | – | > 30 µM (inactive) | – | C[C@@H](Oc1cc(-n2cnc3ccc(CN4CCN(C)CC4)cc32)sc1C(N)=O)c1ccccc1C(F)(F)F [GSK-461364]
6 | > 30 µM (inactive) | > 30 µM (inactive) | > 30 µM (inactive) | 22.7 µM (active) | > 30 µM (inactive) | > 30 µM (inactive) | > 30 µM (inactive) | – | > 30 µM (inactive) | CCn1cc(-c2ccnc3[nH]c(-c4cccc(CN(C)C)c4)cc23)c(-c2ccc(NC(=O)N(C)C)cc2)n1 [GSK-1070916]
7 | > 30 µM (inactive) | > 30 µM (inactive) | > 30 µM (inactive) | > 30 µM (inactive) | > 30 µM (inactive) | > 30 µM (inactive) | > 30 µM (inactive) | – | > 30 µM (inactive) | COc1ccc(S(=O)(=O)N(C(C)=O)c2ccccc2/C=C/c2cc[n+]([O-])cc2)cc1 [HMN-214]
8 | – | > 30 µM (inactive) | 0.019 µM (active) | > 30 µM (inactive) | > 30 µM (inactive) | – | – | > 30 µM (inactive) | – | Cc1[nH]c(/C=C2\C(=O)Nc3ccccc32)c(C)c1CCC(=O)O [ORANTINIB]
9 | > 30 µM (inactive) | – | > 30 µM (inactive) | 0.281 µM (active) | > 30 µM (inactive) | – | – | > 30 µM (inactive) | – | NC(=O)c1c(OCc2c(F)cc(Br)cc2F)nsc1NC(=O)NCCCCN1CCCC1 [OSI-632]
10 | > 30 µM (inactive) | > 30 µM (inactive) | > 30 µM (inactive) | > 30 µM (inactive) | 2.37 µM (active) | > 30 µM (inactive) | > 30 µM (inactive) | – | > 30 µM (inactive) | N#CC1(c2ccc(NC(=O)c3cccnc3NCc3ccncc3)cc2)CCCC1 [RIVOCERANIB]
11 | – | – | – | > 30 µM (inactive) | > 30 µM (inactive) | – | – | > 30 µM (inactive) | – | O=C(NOCCO)c1cc(CN2OCCCC2=O)c(F)c(F)c1Nc1ccc(I)cc1F [RO-4987655]
12 | – | > 30 µM (inactive) | – | > 30 µM (inactive) | > 30 µM (inactive) | – | – | – | – | N#CC[C@H](C1CCCC1)n1cc(-c2ncnc3[nH]ccc23)cn1 [RUXOLITINIB]
13 | > 30 µM (inactive) | > 30 µM (inactive) | > 30 µM (inactive) | > 30 µM (inactive) | > 30 µM (inactive) | > 30 µM (inactive) | > 30 µM (inactive) | – | > 30 µM (inactive) | CO[C@H]1C[C@@H]2CC[C@@H](C)[C@@](O)(O2)C(=O)C(=O)N2CCCC[C@H]2C(=O)O[C@H]([C@H](C)C[C@@H]2CC[C@@H](O)[C@H](OC)C2)CC(=O)[C@H](C)/C=C(\C)[C@@H](O)[C@@H](OC)C(=O)[C@H](C)C[C@H](C)/C=C/C=C/C=C/1C [SIROLIMUS]
14 | – | > 30 µM (inactive) | > 30 µM (inactive) | > 30 µM (inactive) | > 30 µM (inactive) | > 30 µM (inactive) | 0.022 µM (active) | – | > 30 µM (inactive) | CC(C)c1cc(CNc2nc(Nc3cc(C4CC4)[nH]n3)cc(N3CCN(C)CC3)n2)on1 [XL-228]
15 | > 30 µM (inactive) | > 30 µM (inactive) | > 30 µM (inactive) | > 30 µM (inactive) | > 30 µM (inactive) | > 30 µM (inactive) | > 30 µM (inactive) | – | > 30 µM (inactive) | C[C@@H](N)c1ccc(C(=O)Nc2ccnc3[nH]ccc23)cc1 [Y-39983]

Row | Compound | Kd [1] | Kd [2] | Kd [3] | Kd [4] | Kd [5] | Kd [6] | Kd (Focal adhesion kinase 1) | Kd [7] | Kd [8]
16 | CC(=O)c1cnc2ccc(-c3cc(Cl)c(O)c(Cl)c3)nc2c1N[C@H]1CC[C@H](CN(C)C)CC1 | 0.067 µM (active) | > 30 µM (inactive) | > 30 µM (inactive) | > 30 µM (inactive) | 0.324 µM | > 30 µM (inactive) | 0.118 µM (active) | – | –
17 | Cn1cc(C2=C(c3cn(C4CCN(Cc5ccccn5)CC4)c4ccccc34)C(=O)NC2=O)c2ccccc21 [ENZASTAURIN] | – | > 30 µM (inactive) | – | > 30 µM (inactive) | > 30 µM (inactive) | – | – | – | –
18 | CNC(=O)c1cc(Oc2ccc(NC(=O)Nc3cc(C(C)(C)C)nn3-c3ccc4ncccc4c3)c(F)c2)ccn1 [REBASTINIB] | – | > 30 µM (inactive) | > 30 µM (inactive) | > 30 µM (inactive) | 1.28 µM (active) | – | > 30 µM (inactive) | – | 23.2 µM (active)
19 | CN1CCN(CCOc2cc(OC3CCOCC3)c3c(Nc4c(Cl)ccc5c4OCO5)ncnc3c2)CC1 [SARACATINIB] | > 30 µM (inactive) | > 30 µM (inactive) | > 30 µM (inactive) | > 30 µM (inactive) | 1.77 µM (active) | 2.33 µM (active) | > 30 µM (inactive) | – | > 30 µM (inactive)

— ChEMBL document CHEMBL3991601, “The target landscape of clinical kinase drugs” (Science, 2017)
